Test results published in the supplement of paper PMC10307832.

Each cell line was assayed with CN1CCN(CC1)C2=CC(=C(C=C2)NC3=NC(=C(S3)C(=O)C4=C(C=CC=C4Cl)Cl)N)OC [XMD14-99] + Nc1ncn([C@H]2C[C@H](O)[C@@H](CO)O2)c(=O)n1 [Decitabine] (partner 2 µM) (assay: relative viability (nuclei count vs DMSO), 5 days (fraction); higher = more cells survive). Settings: first compound 8 µM.
Procedure, shortened: (§1)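 Relative viability equals treated-well nuclei counts divided by vehicle-well nuclei counts. Counts came from 4× images of lung cancer cell lines grown in 1536-well plates for 5 days after pin-tool dosing on the day after seeding. Dosing used one drug alone or a fixed anchor-drug dose plus five library-drug doses (not always all listed) in √10 steps, and values are medians of duplicate plates.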

Point of comparison: NCI-H2347, relative viability 0.522. Against it:
- NCI-H520 — lower, 0.44
- NCI-H2405 — higher, 0.648
- SW 1573 — lower, 0.334
- 201T — higher, 0.741
- NCI-H1915 — lower, 0.259
- HCC-827 — lower, 0.306
- LXF-289 — lower, 0.36
- NCI-H650 — lower, 0.319

Each cell line was assayed with CN1CCN(CC1)C2=CC(=C(C=C2)NC3=NC(=C(S3)C(=O)C4=C(C=CC=C4Cl)Cl)N)OC [XMD14-99] + CC(=O)Nc1cccc(-n2c(=O)n(C3CC3)c(=O)c3c(Nc4ccc(I)cc4F)n(C)c(=O)c(C)c32)c1 [Trametinib] (partner 0.02 µM) in the same assay as above. Settings: first compound 0.08 µM.
Procedure, shortened: as §1

Point of comparison: BEN, relative viability 0.971. Against it:
- PC-14 — lower, 0.668
- LCLC-103H — lower, 0.702
- NCI-H596 — lower, 0.749
- EMC-BAC-2 — lower, 0.832
- NCI-H2087 — lower, 0.174
- HCC-366 — lower, 0.424
- NCI-H1666 — lower, 0.883
- NCI-H647 — lower, 0.456
- NCI-H2126 — lower, 0.545
- H3255 — lower, 0.563
- COR-L23 — lower, 0.518
- COR-L 105 — lower, 0.407
- LOU-NH91 — lower, 0.865
- ChaGo-K-1 — lower, 0.861
- NCI-H3122 — lower, 0.261
- HOP-62 — lower, 0.382
- HCC-44 — higher, 1.02
- LU99A — lower, 0.559
- HARA — lower, 0.577
- HCC-78 — lower, 0.628
- NCI-H441 — lower, 0.523
- LCLC-97TM1 — lower, 0.172
- NCI-H2023 — lower, 0.495
- A-427 — lower, 0.762
- NCI-H460 — lower, 0.32
- NCI-H727 — lower, 0.352
- NCI-H1734 — lower, 0.659
- NCI-H520 — lower, 0.656
- NCI-H2405 — lower, 0.641
- SW 1573 — lower, 0.547
- 201T — lower, 0.693
- NCI-H1915 — lower, 0.301
- HCC-827 — lower, 0.539
- LXF-289 — lower, 0.632
- NCI-H2347 — lower, 0.278
- NCI-H650 — lower, 0.861

Same assay, conditions: first compound 0.8 µM

Point of comparison: HCC-366, relative viability 0.309. Against it:
- PC-14 — higher, 0.726
- LCLC-103H — higher, 0.716
- NCI-H596 — higher, 0.849
- EMC-BAC-2 — higher, 0.716
- NCI-H2087 — lower, 0.176
- NCI-H1666 — higher, 0.699
- NCI-H647 — higher, 0.495
- NCI-H2126 — higher, 0.569
- H3255 — higher, 0.67
- COR-L23 — higher, 0.56
- COR-L 105 — higher, 0.493
- LOU-NH91 — higher, 0.829
- ChaGo-K-1 — higher, 0.863
- NCI-H3122 — lower, 0.22
- HOP-62 — higher, 0.419
- HCC-44 — higher, 1.04
- LU99A — higher, 0.61
- BEN — higher, 1.15
- HARA — higher, 0.549
- HCC-78 — higher, 0.711
- NCI-H441 — higher, 0.436
- LCLC-97TM1 — lower, 0.229
- NCI-H2023 — higher, 0.562
- A-427 — higher, 0.668
- NCI-H460 — lower, 0.228
- NCI-H727 — higher, 0.403
- NCI-H1734 — higher, 0.68
- NCI-H520 — higher, 0.747
- NCI-H2405 — higher, 0.751
- SW 1573 — higher, 0.58
- 201T — higher, 0.709
- NCI-H1915 — higher, 0.311
- HCC-827 — higher, 0.529
- LXF-289 — higher, 0.639
- NCI-H2347 — lower, 0.288
- NCI-H650 — higher, 0.932

Same assay, conditions: first compound 2.53 µM

Point of comparison: HARA, relative viability 0.465. Against it:
- PC-14 — higher, 0.59
- LCLC-103H — higher, 0.719
- NCI-H596 — higher, 1.06
- EMC-BAC-2 — higher, 0.744
- NCI-H2087 — lower, 0.162
- HCC-366 — lower, 0.377
- NCI-H1666 — higher, 0.739
- NCI-H647 — higher, 0.582
- NCI-H2126 — higher, 0.621
- H3255 — higher, 0.54
- COR-L23 — higher, 0.546
- COR-L 105 — lower, 0.432
- LOU-NH91 — higher, 0.793
- ChaGo-K-1 — higher, 0.895
- NCI-H3122 — lower, 0.269
- HOP-62 — lower, 0.412
- HCC-44 — higher, 1.11
- LU99A — higher, 0.512
- BEN — higher, 1
- HCC-78 — higher, 0.753
- NCI-H441 — lower, 0.389
- LCLC-97TM1 — lower, 0.208
- NCI-H2023 — higher, 0.754
- A-427 — higher, 0.651
- NCI-H460 — lower, 0.126
- NCI-H727 — lower, 0.384
- NCI-H1734 — higher, 0.653
- NCI-H520 — higher, 0.745
- NCI-H2405 — higher, 0.626
- SW 1573 — higher, 0.74
- 201T — higher, 0.691
- NCI-H1915 — lower, 0.25
- HCC-827 — higher, 0.542
- LXF-289 — higher, 0.611
- NCI-H2347 — lower, 0.304
- NCI-H650 — higher, 1.05

Same assay, conditions: first compound 8 µM

Point of comparison: H3255, relative viability 0.488. Against it:
- PC-14 — lower, 0.217
- LCLC-103H — higher, 0.665
- NCI-H596 — higher, 0.764
- EMC-BAC-2 — higher, 0.668
- NCI-H2087 — lower, 0.122
- HCC-366 — lower, 0.261
- NCI-H1666 — higher, 0.864
- NCI-H647 — lower, 0.442
- NCI-H2126 — higher, 0.56
- COR-L23 — lower, 0.363
- COR-L 105 — lower, 0.431
- LOU-NH91 — higher, 0.762
- ChaGo-K-1 — higher, 0.829
- NCI-H3122 — lower, 0.22
- HOP-62 — lower, 0.368
- HCC-44 — higher, 1.01
- LU99A — lower, 0.394
- BEN — higher, 0.879
- HARA — lower, 0.466
- HCC-78 — lower, 0.438
- NCI-H441 — lower, 0.263
- LCLC-97TM1 — lower, 0.18
- NCI-H2023 — lower, 0.442
- A-427 — higher, 0.553
- NCI-H460 — lower, 0.089
- NCI-H727 — lower, 0.39
- NCI-H1734 — higher, 0.642
- NCI-H520 — lower, 0.437
- NCI-H2405 — higher, 0.575
- SW 1573 — lower, 0.47
- 201T — higher, 0.664
- NCI-H1915 — lower, 0.224
- HCC-827 — lower, 0.432
- LXF-289 — higher, 0.529
- NCI-H2347 — lower, 0.269
- NCI-H650 — higher, 0.907
